In brackets after ≈: the same amount, converted by molar mass. Blank lines part the entries; values can stand above or below the molecule they belong to.
How the values were obtained:
Test in all cases: ≥ marks a high value that may be exact or a test limit, other limits are often not marked, values filed in µg/mL are converted to µM
[1] = tested on: Acinetobacter baumannii 97830
[2] = tested on: Acinetobacter baumannii 9931
[3] = tested on: Acinetobacter baumannii ATCC 19606
[4] = tested on: Bacillus subtilis ATCC 23857
Escherichia coli 780 = tested on: Escherichia coli 780
Escherichia coli 804 = tested on: Escherichia coli 804
[5] = tested on: Klebsiella pneumoniae ATCC 700603
[6] = tested on: Pseudomonas aeruginosa 50
[7] = tested on: Pseudomonas aeruginosa 73
[8] = tested on: Pseudomonas aeruginosa ATCC 27853
[9] = tested on: Pseudomonas aeruginosa ATCC 9027
[10] = tested on: Staphylococcus aureus 113
Staphylococcus aureus 75 = tested on: Staphylococcus aureus 75
[11] = tested on: Staphylococcus aureus ATCC 29213
[12] = tested on: Staphylococcus epidermidis ATCC 12228
Bacillus cereus DSM 4222 = tested on: Bacillus cereus DSM 4222
Bacillus cereus DSM 4312 = tested on: Bacillus cereus DSM 4312
[13] = tested on: Bacillus subtilis ATCC 6051
[14] = tested on: Clostridium perfringens ATCC 13124
[15] = tested on: Clostridium perfringens DSM 11784
[16] = tested on: Escherichia coli ATCC 35150
[17] = tested on: Escherichia coli NCTC 13452
[18] = tested on: Escherichia coli NEB5alpha
[19] = tested on: Listeria monocytogenes SLCC 5581
Listeria monocytogenes = tested on: Listeria monocytogenes
[20] = tested on: Pseudomonas fluorescens DSM 50124
[21] = tested on: Pseudomonas putida DSM 291
[22] = tested on: Salmonella enterica subsp. enterica serovar Typhimurium DSM 554
[23] = tested on: Salmonella typhimurium DSM 19587
[24] = tested on: Staphylococcus aureus ATCC 3300
[25] = tested on: Staphylococcus aureus DSM 2569
[26] = tested on: Escherichia coli ATCC 25922
[27] = tested on: Staphylococcus aureus FDA 209P
[28] = tested on: Acinetobacter baumannii b-01
[29] = tested on: Acinetobacter baumannii b-02
[30] = tested on: Acinetobacter baumannii b-03
[31] = tested on: Acinetobacter baumannii b-04
Pseudomonas aeruginosa = tested on: Pseudomonas aeruginosa

MIC [1]: ≥ 128 µM | MIC [2]: ≥ 64 µM | MIC [3]: 128 µM (≈ 168 µg/mL) | MIC [4]: 4 µM (≈ 5.26 µg/mL) | MIC (Escherichia coli 780): ≥ 32 µM | MIC (Escherichia coli 804): ≥ 32 µM | MIC [5]: 128 µM (≈ 168 µg/mL) | MIC [6]: ≥ 128 µM | MIC [7]: ≥ 128 µM | MIC [8]: > 128 µM | MIC [9]: 128 µM (≈ 168 µg/mL) | MIC [10]: 8 µM (≈ 10.5 µg/mL) | MIC (Staphylococcus aureus 75): 8 µM (≈ 10.5 µg/mL) | MIC [11]: 2 µM (≈ 2.63 µg/mL) | MIC [12]: 4 µM (≈ 5.26 µg/mL)
Compound: NCC(=O)N[C@@H](CCCN=C(N)N)C(=O)N[C@@H](CCCN=C(N)N)C(=O)N[C@@H](Cc1c[nH]c2ccccc12)C(=O)N[C@@H](Cc1c[nH]c2ccccc12)C(=O)N[C@@H](Cc1c[nH]c2ccccc12)C(=O)N[C@@H](CCCN=C(N)N)C(=O)N[C@@H](CCCN=C(N)N)C(=O)NCC(N)=O [GRRWWWRRG]

MIC (Bacillus cereus DSM 4222): ≥ 1000 µM | MIC (Bacillus cereus DSM 4312): ≥ 1000 µM | MIC [13]: 15.6 µM (≈ 33.1 µg/mL) | MIC [14]: ≥ 125 µM | MIC [15]: ≥ 1000 µM | MIC [16]: ≥ 500 µM | MIC [17]: ≥ 125 µM | MIC [18]: ≥ 62.5 µM | MIC [19]: ≥ 500 µM | MIC (Listeria monocytogenes): ≥ 250 µM | MIC [20]: ≥ 500 µM | MIC [21]: ≥ 125 µM | MIC [22]: ≥ 1000 µM | MIC [23]: ≥ 1000 µM | MIC [24]: ≥ 500 µM | MIC [25]: ≥ 500 µM
Compound: CC[C@H](C)[C@H](NC(=O)[C@@H](N)CCCN=C(N)N)C(=O)N[C@@H](CCCCN)C(=O)N[C@H](C(=O)N[C@H](C(=O)N[C@H](C(=O)N[C@@H](CO)C(=O)N[C@@H](Cc1ccccc1)C(=O)N[C@@H](CC(=O)O)C(=O)N[C@@H](CC(C)C)C(=O)N1CCC[C@H]1C(=O)N[C@@H](C)C(=O)N[C@@H](CC(C)C)C(=O)N[C@@H](CCCN=C(N)N)C(=O)N[C@@H](Cc1ccccc1)C(=O)N[C@@H](CC(C)C)C(=O)N[C@@H](CCCCN)C(=O)N[C@@H](CC(C)C)C(=O)O)[C@@H](C)O)C(C)C)[C@@H](C)O [RIKTVTSFDLPALRFLKL]

MIC [26]: 1.1 µM (≈ 4.24 µg/mL) | MIC [27]: 2.6 µM (≈ 10 µg/mL)
Compound: CC[C@H](C)[C@H](NC(=O)[C@H](CCSC)NC(=O)[C@H](CCCCN)NC(=O)[C@@H](NC(=O)[C@H](C)NC(=O)CNC(=O)[C@H](CCCCN)NC(=O)[C@@H](NC(=O)[C@H](CC(C)C)NC(=O)[C@@H](NC(=O)[C@H](Cc1ccccc1)NC(=O)[C@H](CC(C)C)NC(=O)CN)[C@@H](C)O)[C@@H](C)CC)C(C)C)C(=O)NCC(=O)N[C@@H](CCCCN)C(=O)N[C@H](C(=O)N[C@H](C(=O)N[C@@H](C)C(=O)N[C@@H](CCCCN)C(=O)N[C@@H](CCC(=O)O)C(=O)N[C@@H](C)C(=O)NCC(=O)N[C@@H](CCCCN)C(=O)N[C@H](C(=O)NCC(=O)N[C@@H](CC(C)C)C(=O)N[C@@H](CCC(=O)O)C(=O)N[C@@H](CC(C)C)C(=O)N[C@@H](CCSC)C(=O)N[C@@H](C)C(=O)N[C@H]1CSSC[C@@H](C(=O)O)NC(=O)[C@H](CCC(N)=O)NC(=O)[C@H](CC(N)=O)NC(=O)[C@H]([C@@H](C)O)NC(=O)[C@H](C(C)C)NC(=O)[C@H](CCCCN)NC1=O)[C@@H](C)O)C(C)C)[C@@H](C)O [GLFTLIKGAVKMIGKTVAKEAGKTGLELMACKVTNQC]

MIC [28]: 1.27 µM (≈ 3.12 µg/mL) | MIC [29]: 2.55 µM (≈ 6.25 µg/mL) | MIC [30]: 2.55 µM (≈ 6.25 µg/mL) | MIC [31]: 1.27 µM (≈ 3.12 µg/mL) | MIC (Pseudomonas aeruginosa): 1.27 µM (≈ 3.12 µg/mL)
Compound: CC[C@H](C)[C@H](NC(=O)[C@H](Cc1ccccc1)NC(=O)[C@H](CO)NC(=O)[C@H](CCCCN)NC(=O)[C@H](Cc1c[nH]c2ccccc12)NC(=O)[C@@H](N)CCCCN)C(=O)N[C@@H](CCCCN)C(=O)N[C@@H](CCCCN)C(=O)N[C@@H](CC(C)C)C(=O)N[C@H](C(=O)N[C@@H](CO)C(=O)N[C@@H](CCCCN)C(=O)N[C@@H](Cc1ccccc1)C(=O)N[C@@H](CC(C)C)C(=O)N[C@@H](Cc1cnc[nH]1)C(=O)N[C@@H](CO)C(=O)N[C@@H](C)C(=O)N[C@@H](CCCCN)C(=O)N[C@@H](CCCCN)C(=O)N[C@@H](Cc1ccccc1)C(N)=O)[C@@H](C)O [KWKSFIKKLTSKFLHSAKKF]

Reference: DBAASP
